According to the supplement of paper PMC10307832:

What was measured:
Assay in all cases: relative viability (nuclei count vs DMSO), 5 days (fraction); higher = more cells survive
PAC-1 + Navitoclax = compound: C=CCc1cccc(/C=N/NC(=O)CN2CCN(Cc3ccccc3)CC2)c1O [PAC-1] + CC1(C)CCC(c2ccc(Cl)cc2)=C(CN2CCN(c3ccc(C(=O)NS(=O)(=O)c4ccc(N[C@H](CCN5CCOCC5)CSc5ccccc5)c(S(=O)(=O)C(F)(F)F)c4)cc3)CC2)C1 [Navitoclax] (partner 0.5 µM)
Summary of the method: (§1)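 Lung cancer cell lines were seeded in 1536-well plates and dosed by pin tool the next day, with either a single drug or a fixed anchor-drug dose combined with five library-drug doses (not always all listed) spaced in √10 steps. Five days later, one step fixed the cells and stained their nuclei (final 0.05% Triton X-100, 1% formaldehyde, 1 ug/ml Hoechst), and nuclei were counted on 4× images. Relative viability is the nuclei count in treated wells divided by the count in vehicle wells, and each value is the median of duplicate plates.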

PAC-1 + Decitabine = compound: C=CCc1cccc(/C=N/NC(=O)CN2CCN(Cc3ccccc3)CC2)c1O [PAC-1] + Nc1ncn([C@H]2C[C@H](O)[C@@H](CO)O2)c(=O)n1 [Decitabine] (partner 2 µM)
Summary of the method: as §1

BMX-IN-1 + Bortezomib = compound: C=CC(=O)Nc1cc(-n2c(=O)ccc3cnc4ccc(-c5ccc(NS(C)(=O)=O)cc5)cc4c32)ccc1C [BMX-IN-1] + CC(C)C[C@H](NC(=O)[C@H](Cc1ccccc1)NC(=O)c1cnccn1)B(O)O [Bortezomib] (partner 0.002 µM)
Summary of the method: as §1

BMX-IN-1 + Tozasertib = compound: C=CC(=O)Nc1cc(-n2c(=O)ccc3cnc4ccc(-c5ccc(NS(C)(=O)=O)cc5)cc4c32)ccc1C [BMX-IN-1] + Cc1cc(Nc2cc(N3CCN(C)CC3)nc(Sc3ccc(NC(=O)C4CC4)cc3)n2)n[nH]1 [Tozasertib] (partner 0.1 µM)
Summary of the method: as §1

PAC-1 + Pemetrexed = compound: C=CCc1cccc(/C=N/NC(=O)CN2CCN(Cc3ccccc3)CC2)c1O [PAC-1] + Nc1nc2[nH]cc(CCc3ccc(C(=O)N[C@@H](CCC(=O)O)C(=O)O)cc3)c2c(=O)[nH]1 [Pemetrexed] (partner 0.2 µM)
Summary of the method: as §1

Cell Line | relative viability (PAC-1 + Navitoclax; first compound 0.02 µM) | relative viability (PAC-1 + Navitoclax; first compound 0.06325 µM) | relative viability (PAC-1 + Navitoclax; first compound 0.2 µM) | relative viability (PAC-1 + Navitoclax; first compound 2 µM) | relative viability (PAC-1 + Decitabine; first compound 0.02 µM) | relative viability (PAC-1 + Decitabine; first compound 0.06325 µM) | relative viability (PAC-1 + Decitabine; first compound 0.2 µM) | relative viability (PAC-1 + Decitabine; first compound 2 µM) | relative viability (BMX-IN-1 + Bortezomib; first compound 0.02 µM) | relative viability (BMX-IN-1 + Bortezomib; first compound 0.2 µM) | relative viability (BMX-IN-1 + Bortezomib; first compound 0.6325 µM) | relative viability (BMX-IN-1 + Bortezomib; first compound 2 µM) | relative viability (BMX-IN-1 + Tozasertib; first compound 0.02 µM) | relative viability (BMX-IN-1 + Tozasertib; first compound 0.2 µM) | relative viability (BMX-IN-1 + Tozasertib; first compound 0.6325 µM) | relative viability (BMX-IN-1 + Tozasertib; first compound 2 µM) | relative viability (PAC-1 + Pemetrexed; first compound 0.02 µM) | relative viability (PAC-1 + Pemetrexed; first compound 0.06325 µM) | relative viability (PAC-1 + Pemetrexed; first compound 0.2 µM) | relative viability (PAC-1 + Pemetrexed; first compound 2 µM)
NCI-H520 | 1.11 | 1.02 | 1.04 | 1.12 | 0.465 | 0.513 | 0.328 | 0.548 | 0.604 | 0.741 | 0.863 | 0.465 | 0.494 | 0.451 | 0.43 | 0.429 | 0.723 | 0.686 | 0.639 | 0.58
COR-L23 | 0.874 | 0.984 | 0.908 | 0.999 | 0.487 | 0.428 |  | 0.418 | 1.27 | 1.54 | 1.09 | 1.05 | 0.186 | 0.312 | 0.213 | 0.212 | 0.206 | 0.192 |  | 0.206
NCI-H2405 | 0.891 | 0.969 | 0.855 | 1.08 | 0.759 | 0.821 | 0.707 | 0.765 | 0.989 | 1.1 | 0.999 | 1.01 | 0.808 | 0.76 | 0.861 | 0.747 | 1.08 | 1.06 | 1.06 | 1.02
A-427 | 1 | 0.92 | 0.908 | 0.907 | 0.602 | 0.56 | 0.532 | 0.542 | 1.03 | 1.06 | 1.18 | 0.985 | 0.183 | 0.182 | 0.21 | 0.2 | 0.992 | 1.01 | 1.09 | 0.977
SK-LU-1 | 0.803 | 0.892 | 0.733 | 0.888 | 0.651 | 0.627 | 0.293 | 0.654 | 1.52 | 1.47 | 1.22 | 1.07 | 0.321 | 0.344 | 0.281 | 0.254 | 0.944 | 1.02 | 0.915 | 0.99
RERF-LC-KJ | 0.859 | 0.932 | 1.11 | 0.733 | 0.66 | 0.65 | 0.66 | 0.661 | 1.17 | 1.21 | 1.09 | 1.05 | 0.566 | 0.642 | 0.472 | 0.435 | 0.509 | 0.463 | 0.483 | 0.449
LXF-289 | 0.944 | 0.948 | 0.932 | 0.927 | 0.405 | 0.39 | 0.388 | 0.377 | 1.09 | 1.16 | 1.11 | 1.05 | 0.212 | 0.197 | 0.187 | 0.146 | 0.857 | 0.859 | 0.873 | 0.916
LC-2-ad | 0.464 | 0.427 | 0.35 | 0.331 | 0.827 | 0.75 | 0.779 | 0.672 | 1.02 | 1.28 | 1.01 | 1.04 | 0.408 | 0.501 | 0.394 | 0.214 | 0.26 | 0.296 | 0.265 | 0.27
NCI-H23 | 0.569 | 0.891 | 0.793 | 0.881 | 0.322 | 0.303 | 0.294 | 0.284 | 1.23 | 1.46 | 1.18 | 1.06 | 0.331 | 0.367 | 0.586 | 0.34 | 0.623 | 0.705 | 0.817 | 0.775
